# PubChem BioAssay (NCI)
#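 Compound exposure: 48 hours, 5 concentrations, 96-well plates. Here, GI50 denotes the concentration required for 50% inhibition of growth. Definition used: TGI = concentration required for complete inhibition of growth.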
# What was measured:
# Assay in all cases: inhibition of tumour cell growth, NCI panel, 48 h
# SF-295 CNS = system: SF-295 CNS
# M14 melanoma = system: M14 melanoma
# HOP-92 NSCLC = system: HOP-92 NSCLC
# UO-31 renal = system: UO-31 renal
# SK-MEL-28 melanoma = system: SK-MEL-28 melanoma
# NCI-H460 lung = system: NCI-H460 lung
# MALME-3M melanoma = system: MALME-3M melanoma
# MCF7 breast = system: MCF7 breast
# DU-145 prostate = system: DU-145 prostate
# HS 578T breast = system: HS 578T breast
Compound,TGI (SF-295 CNS) [µM],TGI (M14 melanoma) [µM],TGI (HOP-92 NSCLC) [µM],TGI (UO-31 renal) [µM],TGI (SK-MEL-28 melanoma) [µM],TGI (NCI-H460 lung) [µM],TGI (MALME-3M melanoma) [µM],TGI (MCF7 breast) [µM],TGI (DU-145 prostate) [µM],TGI (HS 578T breast) [µM],GI50 (DU-145 prostate) [µM]
Nc1nc2c(nnn2C2C=C(CO)C(O)C2O)c(=O)[nH]1 (stereo not given),> 100,> 100,> 100,> 100,> 100,> 100,> 100,,,,
CC(C)c1cccc(C(C)C)c1NC(=O)/C(Cc1nc2ccc(Cl)cc2[nH]c1=O)=N\NC(=O)C[N+](C)(C)C,> 100,> 100,> 100,> 100,> 100,> 100,> 100,,,,
O=C(C#Cc1ccccc1)Nc1ccccc1CC(c1c[nH]c2ccccc12)c1c[nH]c2ccccc12,80,39.6,,> 100,32.4,,> 100,,,,
CN(C)CCNC(=O)c1cccc2c(NC(CCCN=C(N)N)C(=O)O)c3ccccc3nc12 (stereo not given),41.9,> 100,51.1,> 100,89.2,,23.4,> 100,> 100,33.2,
C=C1C(=O)OC2C=C(C)CC3C=C(CCC=C(C)CCC12)C(=O)O3 (stereo not given),200,,116,234,119,148,> 81.4,106,,,
O=C1/C(=C/Cc2ccco2)N=C(c2ccccc2)N1c1nc2ccc(Sc3ccccc3)cc2[nH]1,> 100,42.5,67.6,50.6,85,> 100,,49.2,70.5,50.7,
OC[C@@H](O)[C@H](O)[C@H](O)[C@@H](O)C1SCCCS1,> 100,> 100,92.5,> 100,> 100,> 100,,> 100,> 100,,
O=C(O)Cn1cnc2c(=O)[nH]c(Nc3ccccc3)nc21,> 100,> 100,> 100,,> 100,> 100,> 100,> 100,> 100,> 100,
CSCCC(NOC(=O)Cc1ccccc1)P(=O)(O)c1ccccc1 (stereo not given),> 100,> 100,> 100,> 100,> 100,> 100,,> 100,> 100,> 100,
O=C1C2=C(c3ccccc31)C(c1ccc([N+](=O)[O-])cc1)NC(=S)N2 (stereo not given),> 100,> 100,> 100,> 100,> 100,> 100,> 100,,,,
Cc1cc2nc3c(C)c4ccccc4c(C)n3c2cc1C,> 10,> 10,8.45,,9,4.84,6.66,> 10,> 10,> 10,
CC(C)C(N=C1CC2CCC1(C(=O)Nc1ccccc1O)C2(C)C)c1ccccc1 (stereo not given),> 10,> 10,> 10,> 10,> 10,> 10,> 10,,,,
Clc1cccc(C=NC23CC4CC(CC(C4)C2)C3)c1Cl,> 10,> 10,> 10,,> 10,> 10,> 10,> 10,> 10,> 10,
Nc1nc(Cl)cc(OCC2(CO)CCCCC2)n1,> 100,,> 100,,> 100,> 100,> 100,> 100,> 100,> 100,
COC(=O)[C@@]1(Cc2ccc(OC(C)=O)cc2)Cc2cc3ccccc3n2N1,> 100,> 100,> 100,> 100,> 100,,> 100,> 100,> 100,> 100,
CCCC(CCC(=O)O)(CCC(=O)O)[N+](=O)[O-],> 100,> 100,> 100,> 100,,> 100,> 100,> 100,> 100,> 100,
O=C(Cn1cc(I)c(C(=O)NCC(O)CO)n1)NCC(O)CO (stereo not given),> 100,> 100,> 100,> 100,> 100,> 100,> 100,,,,
CCc1cc2c(cc1O)CC[C@@H]1[C@@H]2CC[C@]2(C)[C@@H](O)CC[C@@H]12,12.1,19.8,,21.8,16.3,20.9,12.5,10.4,24.5,,11.1
O=C(O)C(=Cc1ccc(-c2ccc([N+](=O)[O-])cc2)o1)C(=O)O,> 100,> 100,,> 100,> 100,> 100,> 100,> 100,> 100,> 100,
Cc1ccc(S(=O)(=O)N(CC(O)COc2ccccc2)c2ccccc2Cl)cc1 (stereo not given),43.5,31,,24.8,29.1,36.2,29.2,58.5,57.5,26.4,
COc1ccc(/C=N/NC(=O)NCCNCCO)cc1,> 100,> 100,> 100,> 100,> 100,> 100,> 100,,,,
CC(=O)Nc1ccc(S(=O)(=O)Nc2cnc3ccccc3n2)cc1,> 100,> 100,> 100,> 100,> 100,> 100,> 100,,,,
C#CCN(Cc1ccc2nc(-c3ccccc3)c(Cl)nc2c1)c1ccc(Cl)c(Cl)c1,> 100,> 100,> 100,> 100,> 100,> 100,> 100,,,,
Nc1ccc2ncc(NCc3ccc(F)cc3)nc2c1,> 100,> 100,> 100,> 100,> 100,> 100,> 100,,,,
